T1: cAMP-GEFI (Rattus norvegicus, UniProt Q9Z1C8)
T1 sequence (Q9Z1C8 43-926 limits assumed): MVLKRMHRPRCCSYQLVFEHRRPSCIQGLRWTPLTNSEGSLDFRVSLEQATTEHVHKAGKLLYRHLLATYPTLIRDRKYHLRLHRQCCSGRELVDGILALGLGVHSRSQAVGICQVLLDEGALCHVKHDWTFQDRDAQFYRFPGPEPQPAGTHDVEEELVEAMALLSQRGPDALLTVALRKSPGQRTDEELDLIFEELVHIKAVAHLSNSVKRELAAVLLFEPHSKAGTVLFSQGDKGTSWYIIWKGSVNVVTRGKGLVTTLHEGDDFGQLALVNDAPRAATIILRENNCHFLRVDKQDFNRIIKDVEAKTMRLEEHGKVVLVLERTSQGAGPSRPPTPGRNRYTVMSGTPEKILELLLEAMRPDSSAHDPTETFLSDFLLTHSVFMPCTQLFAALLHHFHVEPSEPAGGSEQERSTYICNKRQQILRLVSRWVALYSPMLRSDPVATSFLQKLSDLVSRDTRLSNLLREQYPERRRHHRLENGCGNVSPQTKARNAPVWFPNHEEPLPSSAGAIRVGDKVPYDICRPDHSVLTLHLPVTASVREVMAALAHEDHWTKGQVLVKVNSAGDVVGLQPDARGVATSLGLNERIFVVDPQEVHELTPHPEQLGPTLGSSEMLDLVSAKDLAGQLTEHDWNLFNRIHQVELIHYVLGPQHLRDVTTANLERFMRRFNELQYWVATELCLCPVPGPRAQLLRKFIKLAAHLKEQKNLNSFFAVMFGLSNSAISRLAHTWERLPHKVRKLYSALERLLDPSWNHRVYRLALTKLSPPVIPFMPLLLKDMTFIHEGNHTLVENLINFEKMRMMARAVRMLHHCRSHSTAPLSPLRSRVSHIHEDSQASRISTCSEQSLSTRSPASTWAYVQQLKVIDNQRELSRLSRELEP

T2: CalDAG-GEFI (Mus musculus, UniProt Q9QUG9)
T2 construct: expressed in transfected cells; host or cells: 293T cells
T2 sequence (Q9QUG9 with tags, fused parts or gaps M73V/I83V/Q99P/R233K/C339S/E542D/S598T limits assumed): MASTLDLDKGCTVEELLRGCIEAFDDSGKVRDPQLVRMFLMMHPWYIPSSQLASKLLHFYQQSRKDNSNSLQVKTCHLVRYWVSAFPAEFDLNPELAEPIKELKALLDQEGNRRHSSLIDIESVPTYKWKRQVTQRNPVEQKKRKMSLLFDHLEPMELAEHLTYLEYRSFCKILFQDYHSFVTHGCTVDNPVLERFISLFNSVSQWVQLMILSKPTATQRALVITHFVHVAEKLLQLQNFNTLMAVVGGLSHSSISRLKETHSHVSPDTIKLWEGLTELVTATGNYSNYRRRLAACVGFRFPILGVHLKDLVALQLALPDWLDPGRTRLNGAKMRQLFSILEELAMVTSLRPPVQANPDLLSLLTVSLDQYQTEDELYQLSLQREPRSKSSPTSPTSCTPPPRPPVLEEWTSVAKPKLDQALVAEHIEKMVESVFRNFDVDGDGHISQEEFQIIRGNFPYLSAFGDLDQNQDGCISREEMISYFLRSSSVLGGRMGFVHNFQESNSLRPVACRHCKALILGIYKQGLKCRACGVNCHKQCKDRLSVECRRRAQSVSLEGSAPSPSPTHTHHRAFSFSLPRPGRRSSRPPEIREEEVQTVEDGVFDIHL

T3: CalDAG-GEFII (Rattus norvegicus, UniProt Q9R1K8)
T3 construct: expressed in transfected cells; host or cells: 293T cells
T3 sequence (Q9R1K8 1-795): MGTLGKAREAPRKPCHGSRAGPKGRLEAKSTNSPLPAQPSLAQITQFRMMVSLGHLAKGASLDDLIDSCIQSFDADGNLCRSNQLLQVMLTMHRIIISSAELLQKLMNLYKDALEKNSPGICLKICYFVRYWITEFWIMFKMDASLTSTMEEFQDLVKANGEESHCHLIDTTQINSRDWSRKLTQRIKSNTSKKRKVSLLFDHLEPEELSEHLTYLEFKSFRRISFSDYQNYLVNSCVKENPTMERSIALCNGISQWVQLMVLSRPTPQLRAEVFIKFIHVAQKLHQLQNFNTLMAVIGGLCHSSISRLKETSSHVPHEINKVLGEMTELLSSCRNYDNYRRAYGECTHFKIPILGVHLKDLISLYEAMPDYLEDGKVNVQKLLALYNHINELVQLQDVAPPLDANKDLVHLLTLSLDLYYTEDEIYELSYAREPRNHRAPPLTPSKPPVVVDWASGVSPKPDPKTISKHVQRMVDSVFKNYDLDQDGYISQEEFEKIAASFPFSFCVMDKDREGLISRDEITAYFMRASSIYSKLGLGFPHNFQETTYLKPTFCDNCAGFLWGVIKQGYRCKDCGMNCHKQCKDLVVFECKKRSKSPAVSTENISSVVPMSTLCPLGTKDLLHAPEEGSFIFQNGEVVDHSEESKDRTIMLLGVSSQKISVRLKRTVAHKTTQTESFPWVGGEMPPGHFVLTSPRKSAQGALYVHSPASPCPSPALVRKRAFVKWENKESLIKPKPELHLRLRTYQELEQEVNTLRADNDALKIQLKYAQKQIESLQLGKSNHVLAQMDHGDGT

B1: CalDAG-GEFII: guanine nucleotide exchange factor activating H-Ras and R-Ras; rat cDNA expressed in 293T cells (protein)
chain: T3 sequence (Q9R1K8 1-795)
modifications: left off: small tags and cut ends
notes: rat cDNA expressed in 293T cells
B2: CalDAG-GEFI: guanine nucleotide exchange factor with Ca2+ and DAG binding domains, substrate Rap1A; mouse cDNA expressed in 293T cells (protein)
chain: T2 sequence (Q9QUG9 with tags, fused parts or gaps M73V/I83V/Q99P/R233K/C339S/E542D/S598T limits assumed)

What was measured:
cAMP-GEFI = target: T1, cAMP-GEFI; assay: cAMP agarose affinity bead binding assay; settings: excess amounts of competitor; in vitro translated cAMP-GEFI
CalDAG-GEFI = target: T2, CalDAG-GEFI; assay: Guanine nucleotide exchange activity in intact 293T cells cotransfected with mouse CalDAG-GEFI and GST-tagged Rap1A; format: cell-based; settings: 10 μM A23187 or 1 μM TPA for 3 min
Protocol: (§1) To determine the small G protein target of CalDAG-GEFI, guanine nucleotide exchange activity in vivo was analyzed using intact 293T cells cotransfected with a eukaryotic expression construct of mouse CalDAG-GEFI and GST-tagged Ras family proteins. Full-length mouse CalDAG-GEFI cDNA inserted into a pCMV-SPORT expression vector with a carboxy-terminal FLAG epitope was used for transfection. A PCR-amplified fragment of rat CalDAG-GEFII was subcloned into a pCAGGS expression vector with the addition of His6-tag at its amino-terminus, resulting in pCAGGS-His-CalDAGII. pEBG-Krev1 that expresses Rap1A was used as a fusion protein to glutathione S-transferase (GST) in mammalian cells, as described in Gotoh et al., 15 Mol. Cell Biol. 6746–53 (1995), pEBG-R-Ras, other vectors for Ras-family proteins obtained by inserting PCR-amplified cDNAs into pEBG expression vector, pCAGGS-C3G and pCAGGS-MSos1, and pCEV-H-RasVl2.
(§2) To determine the effect of CalDAG-GEFI on the Erk/MAP kinase cascade, Elk1 activation was measured in 293T cells transfected with CalDAG-GEFI or constitutively active H-Ras (RasV12), or both. […] 293T cells were transfected with pFR-Luc and pFA-Elk1 with various expression vectors, and light output was detected and analyzed by the use of LAS1000 film.

CalDAG-GEFII = target: T3, CalDAG-GEFII; assay: Guanine nucleotide exchange activity in 293T cells transfected with CalDAG-GEFII (H-Ras activation); format: cell-based
Protocol: as §1
as §2, with “film. […]” for “film.”

[1] = target: Rap1A as a fusion protein to glutathione S-transferase (pEBG-Krev1) (UniProt P62834)
Elk1 = Elk1 activation in 293T cells (PathDetect Elk1 transreporting system); format: cell-based; settings: for Activation of Elk1 by the GEF itself: 293T cells transfected with the GEF
Protocol: To determine the effect of CalDAG-GEFI on the Erk/MAP kinase cascade, Elk1 activation was measured in 293T cells transfected with CalDAG-GEFI or constitutively active H-Ras (RasV12), or both. 293T cells were transfected by SuperFect (Qiagen) as described in Gotoh, supra, with expression vectors for GST-tagged Ras family proteins and with those for various GEFs. Cells were labeled 24 hours after transfection with ^32Pi for 2 hr. In some experiments, cells were stimulated with either 10 μM A23187 or 1 μM phorbol-12-myristate-13-acetate (TPA) for 3 min. GST-tagged Ras family proteins were collected from cell lysates with glutathione Sepharose. Guanine nucleotides bound to Ras family proteins were separated by thin layer chromatography (TLC). Activation of Elk1 was examined by the PathDetect Elk1 transreporting system (Stratagene). 293T cells were transfected with pFR-Luc and pFA-Elk1 with various expression vectors, and light output was detected and analyzed by the use of LAS1000 film.

Sequence of Rap1A as a fusion protein to glutathione S-transferase (pEBG-Krev1) (P62834 whole entry, the tested form may be a part): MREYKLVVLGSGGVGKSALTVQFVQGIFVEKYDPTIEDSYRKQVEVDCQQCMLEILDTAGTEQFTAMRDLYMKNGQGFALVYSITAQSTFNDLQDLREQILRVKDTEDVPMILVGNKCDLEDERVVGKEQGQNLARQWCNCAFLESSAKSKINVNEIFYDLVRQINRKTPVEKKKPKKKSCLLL

Molecule | Effect on CalDAG-GEFI-induced increase in GTP-bound Rap1A (CalDAG-GEFI) | Effect on CalDAG-GEFII H-Ras activation (CalDAG-GEFII) | Activation of Elk1 by the GEF itself (Elk1) | other results
Nc1ncnc2c1nc(Br)n2[C@@H]1O[C@@H]2COP(=O)(O)O[C@H]2[C@H]1O [8-Br-cAMP] |  |  |  | Competition of radiolabeled cAMP-GEFI binding to cAMP agarose beads (cAMP-GEFI): competed
CNc1ccc2oc(C[C@H]3O[C@@]4(CC[C@H]3C)O[C@H]([C@H](C)C(=O)c3ccc[nH]3)[C@H](C)C[C@H]4C)nc2c1C(=O)O [A23187] | augmented | enhanced |  | 
CCCCCCCCCCCCCC(=O)O[C@@H]1[C@@H](C)[C@@]2(O)[C@@H](C=C(CO)C[C@]3(O)C(=O)C(C)=C[C@@H]23)[C@@H]2C(C)(C)[C@]12OC(C)=O [TPA, phorbol-12-myristate-13-acetate] | augmented | enhanced |  | 
cAMP-GEFI (wild type) |  |  |  | time-course of the activation of Rap1A by forskolin/IBMX in cAMP-GEFI transfectants [1]: the activation began within 10 sec, reached a maximum at 5 min, and continued for at least 60 min
B1 |  |  | increased the transcriptional activity of Elk1 | 
B2 |  |  | did not itself activate Elk1 | Reduction of RasV12 activation of Elk1 (Elk1; 293T cells cotransfected with constitutively active H-Ras (RasV12)): approximately 4 fold
